Data from US11485742B2, “2-azaspiro[3.4]octane derivatives as M4 agonists” (NOVARTIS AG, priority 2019, dated 2022).

Experiments:
Format in all cases: cell-based
[1] = target: T1, human cloned CHRM5 receptor (Homo sapiens, UniProt P08912); assay: CHRM5 Ca++ Flux Assay (M5_CHO cells, agonist mode); conditions: for M5 FDSS PA %: Percent Activity (PA) measured to EC100 of Carbachol; for EC50: agonist mode, geometric mean if tested more than once, read-out: M5 FDSS EC50
T1 construct: expressed in transfected cells; host or cells: CHO (M5_CHO)
T1 sequence (P08912 1-532): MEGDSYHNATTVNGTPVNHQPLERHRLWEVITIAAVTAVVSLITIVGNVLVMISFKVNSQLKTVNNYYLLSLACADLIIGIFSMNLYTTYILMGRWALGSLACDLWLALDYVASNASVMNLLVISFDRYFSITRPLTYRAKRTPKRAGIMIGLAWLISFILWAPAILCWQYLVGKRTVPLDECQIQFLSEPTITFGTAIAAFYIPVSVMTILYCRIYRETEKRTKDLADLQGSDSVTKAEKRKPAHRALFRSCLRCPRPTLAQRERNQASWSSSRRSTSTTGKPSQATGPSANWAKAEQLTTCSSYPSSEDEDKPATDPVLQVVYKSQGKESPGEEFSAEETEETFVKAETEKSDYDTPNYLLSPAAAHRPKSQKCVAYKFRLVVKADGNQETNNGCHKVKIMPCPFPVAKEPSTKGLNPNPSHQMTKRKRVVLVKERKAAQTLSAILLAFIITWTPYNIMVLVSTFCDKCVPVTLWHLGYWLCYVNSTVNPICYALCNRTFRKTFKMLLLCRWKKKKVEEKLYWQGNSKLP
Method: (§1) The above examples were characterized by measuring the intracellular mobilization of Ca^++ ions caused by signaling events mediated by the receptor. The Intra-cellular Calcium flux levels were captured by the highly sensitive Ca^++ indicator, Calcium Assay Kit (BD Biosciences; Catalog Number 640178. The fluorescent activity from all receptors were monitored by the fluorescent imager, FDSS 7000EX (Hamamatsu) over a span of 3 minutes. The change in Calcium flux was readily captured upon activation with the muscarinic orthosteric agonist, Carbachol.
(§2) CHO-K1 cells stably expressing the human cloned CHRM3 receptor (M3_CHO cells) were grown and maintained in a monolayer culture with F12/HAM (Life Technologies) supplemented with 10% Fetal Bovine Serum, IX Pen-Strep, and 0.4 mg/mL Geneticin in a humidified atmosphere (5% CO2) at 37° C. The cultures were grown to 80-90% confluency in T150 flasks (Corning) and washed with 1×DPBS and lifted with 0.05% Trypsin (Life Technologies). The cells were then spun (1K rpm, 3 minutes) and frozen using Recovery Cell Culture Freezing Media (Gibco Technologies). Cells were stored in liquid nitrogen and thawed a day before the assay. A similar procedure was used for cells stably expressing the human cloned CHRM5 receptor (M5_CHO).
(§3) Prior to the day of the assay, stable M3_CHO or M5_CHO cells were thawed and plated on Greiner 384 well black TC treated plates at 12K cells/well in F12/DMEM supplemented with 10% FBS (Hyclone) and kept overnight in a humidified atmosphere (5% CO2) at 37° C. The next day, cells were loaded with Ca^++ dye (BD Biosciences) using Loading Buffer (HBSS +Ca/+Mg, 20 mM HEPES, 2.5 mM Probenecid) and placed back in cell incubator for a minimum of 1 hour. After incubation, the dye was replaced with Assay Buffer (HBSS −Ca/−Mg, 20 mM HEPES, 2.5 mM Probenecid) and kept at room temperature in the dark before running on cell imager. The FDSS 7000EX (Hamamatsu) was used to acquire Ca^+− traces from cells treated with 11 point dose response of compounds in triplicate in order to generate dose response curves in agonist mode. All compounds were serially diluted in DMSO then prepared in Assay Buffer for Ca^++ flux studies. The dose response curves were generated from the average of triplicate wells obtained from each data point and used a non-linear regression of four parameter dose response algorithm. The Percent Activity (PA) was measured to EC100 of Carbachol.
(§4) If an Example was tested more than once in an assay, then the values below represent the geometric mean of the results from each independent experiment.

[2] = target: T2, Cloned human M1 receptor (CHRM1) (Homo sapiens, UniProt P11229); assay: CHRM1 Ca++ Flux Assay (HEK293 M1 cells, agonist mode); conditions: for M1 FDSS PA %: Percent Activity (PA); for EC50: geometric mean if tested more than once, read-out: M1 FDSS EC50
T2 construct: expressed in transfected cells; host or cells: HEK293
T2 sequence (P11229 1-460): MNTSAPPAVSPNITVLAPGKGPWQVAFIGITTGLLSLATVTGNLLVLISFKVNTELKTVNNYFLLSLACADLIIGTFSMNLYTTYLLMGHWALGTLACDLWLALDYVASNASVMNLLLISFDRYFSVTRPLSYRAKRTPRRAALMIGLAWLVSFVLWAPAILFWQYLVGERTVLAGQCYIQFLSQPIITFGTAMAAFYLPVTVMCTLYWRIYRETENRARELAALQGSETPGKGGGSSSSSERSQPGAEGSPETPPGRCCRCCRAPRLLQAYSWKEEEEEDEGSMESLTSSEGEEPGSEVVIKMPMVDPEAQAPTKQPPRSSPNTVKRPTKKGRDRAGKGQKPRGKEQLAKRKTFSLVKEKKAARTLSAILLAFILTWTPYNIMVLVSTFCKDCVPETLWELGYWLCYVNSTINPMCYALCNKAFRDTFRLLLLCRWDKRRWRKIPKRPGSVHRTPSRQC
Method: as §1
Cloned human M1 receptor (CHRM1) was stably expressed in HEK293 cells and were grown and maintained in a monolayer culture with DMEM/High Glucose (Life Technologies) supplemented with 10% Fetal Bovine Serum, 1×Pen-Strep, and 0.5 mg/mL Geneticin in a humidified atmosphere (5% CO2) at 37° C. The cultures were grown to 90% confluency in T150 flasks (Corning) and washed with 1×DPBS and lifted with 0.05% Trypsin (Life Technologies). The cells were then spun (1K rpm, 3 minutes) and frozen using Recovery Cell Culture Freezing Media (Gibco Technologies). Cells were stored in liquid nitrogen and thawed a day before the assay.
Prior to the day of the assay, stable HEK293 M1 cells were thawed and plated on 384 well black walled clear bottom TC treated plates (Greiner Cat #781091) at 25K cells/well with DMEM/High Glucose supplemented with 10% FBS (Hyclone) Pen-Strep (Life Technologies) and kept overnight in a humidified atmosphere (5% CO2) at 37° C. The following day, cells were loaded with 20 uL Ca^++ dye (BD Biosciences) using Loading Buffer (HBSS +Ca/+Mg, 20 mM HEPES) and placed back in cell incubator for a minimum of 1 hour. The dye was replaced with 45 μL Assay Buffer (HBSS −Ca/−Mg, 20 mM HEPES) and kept at room temperature prior to running on cell imager. Compounds were prepared in Assay Buffer and 5 uL was added to the cells. The FDSS 7000EX (Hamamatsu) was used to acquire Ca++ traces for 3 minutes from cells treated with 11 point dose in triplicate in order to generate dose response curves in agonist mode. All compounds were serially diluted in DMSO then prepared in Assay Buffer for Ca^++ flux studies. The dose response curves were generated from the average of triplicate wells obtained from each data point and used a non-linear regression of four parameter dose response algorithm. The Percent Activity (PA) was measured to EC100 of Carbachol.
as §4

[3] = target: T3, human cloned CHRM3 receptor (Homo sapiens, UniProt P20309); assay: CHRM3 Ca++ Flux Assay (M3_CHO cells, agonist mode); conditions: for M3 FDSS PA %: Percent Activity (PA) measured to EC100 of Carbachol; for EC50: agonist mode, geometric mean if tested more than once, read-out: M3 FDSS EC50
T3 construct: expressed in transfected cells; host or cells: CHO-K1 (M3_CHO)
T3 sequence (P20309 whole entry): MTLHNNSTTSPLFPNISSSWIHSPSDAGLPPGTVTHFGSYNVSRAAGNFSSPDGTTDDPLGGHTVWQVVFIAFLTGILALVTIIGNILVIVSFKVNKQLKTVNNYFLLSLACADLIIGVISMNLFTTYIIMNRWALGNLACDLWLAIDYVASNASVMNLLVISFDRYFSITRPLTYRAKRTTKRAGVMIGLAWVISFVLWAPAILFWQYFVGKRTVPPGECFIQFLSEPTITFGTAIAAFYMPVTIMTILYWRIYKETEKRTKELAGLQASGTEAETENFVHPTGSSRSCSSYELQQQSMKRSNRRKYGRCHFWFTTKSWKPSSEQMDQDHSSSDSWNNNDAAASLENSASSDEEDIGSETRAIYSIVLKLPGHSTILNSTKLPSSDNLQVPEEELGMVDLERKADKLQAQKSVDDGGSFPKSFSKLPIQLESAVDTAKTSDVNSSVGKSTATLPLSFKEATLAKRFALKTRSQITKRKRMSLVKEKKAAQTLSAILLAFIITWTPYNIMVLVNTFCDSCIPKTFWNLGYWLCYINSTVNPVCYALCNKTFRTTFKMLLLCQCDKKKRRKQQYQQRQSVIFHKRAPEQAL
Method: as §1, §2, §3, §4

SMILES	M5 FDSS PA % [1] [%]	EC50 [1] [µM]	M1 FDSS PA % [2] [%]	EC50 [2] [µM]	M3 FDSS PA % [3] [%]	EC50 [3] [µM]
Fc1ccc(OC[C@H]2CCO2)c(C2CCN([C@@H]3COC4(C3)CN(c3nncs3)C4)CC2)c1.O=C(O)C(F)(F)F (single isomer, unassigned) [Example 2C, (S)-7-(4-(5-fluoro-2-(((R)-oxetan-2-yl)methoxy)phenyl)piperidin-1-yl)-2-(1,3,4-thiadiazol-2-yl)-5-oxa-2-azaspiro[3.4]octane trifluoroacetate or (S)-7-(4-(5-fluoro-2-(((S)-oxetan-2-yl)methoxy)phenyl)piperidin-1-yl)-2-(1,3,4-thiadiazol-2-yl)-5-oxa-2-azaspiro[3.4]octane trifluoroacetate]	0	> 25	75	1.15	0	> 25
Fc1ccc(OC[C@H]2CCO2)c(C2CCN([C@@H]3COC4(C3)CN(c3nncs3)C4)CC2)c1.O=C(O)C(F)(F)F (single isomer, unassigned) [Example 2D, (S)-7-(4-(5-fluoro-2-(((R)-oxetan-2-yl)methoxy)phenyl)piperidin-1-yl)-2-(1,3,4-thiadiazol-2-yl)-5-oxa-2-azaspiro[3.4]octane trifluoroacetate or (S)-7-(4-(5-fluoro-2-(((S)-oxetan-2-yl)methoxy)phenyl)piperidin-1-yl)-2-(1,3,4-thiadiazol-2-yl)-5-oxa-2-azaspiro[3.4]octane trifluoroacetate]	0	> 25	72	0.289	0	> 25
OC[C@H]1C[C@H](Oc2ccc(F)cc2C2CCN([C@@H]3COC4(C3)CN(c3nnco3)C4)CC2)C1 (single isomer, unassigned) [Example 2HH, ((1S,3r)-3-(2-(1-((S)-2-(1,3,4-oxadiazol-2-yl)-5-oxa-2-azaspiro[3.4]octan-7-yl)piperidin-4-yl)-4-fluorophenoxy)cyclobutyl)methanol or ((1R,3s)-3-(2-(1-((S)-2-(1,3,4-oxadiazol-2-yl)-5-oxa-2-azaspiro[3.4]octan-7-yl)piperidin-4-yl)-4-fluorophenoxy)cyclobutyl)methanol]	0	> 25	96	2.57	0	> 25
OC[C@H]1C[C@H](Oc2ccc(F)cc2C2CCN([C@@H]3COC4(C3)CN(c3nnco3)C4)CC2)C1 (single isomer, unassigned) [Example 2II, ((1S,3r)-3-(2-(1-((S)-2-(1,3,4-oxadiazol-2-yl)-5-oxa-2-azaspiro[3.4]octan-7-yl)piperidin-4-yl)-4-fluorophenoxy)cyclobutyl)methanol or ((1R,3s)-3-(2-(1-((S)-2-(1,3,4-oxadiazol-2-yl)-5-oxa-2-azaspiro[3.4]octan-7-yl)piperidin-4-yl)-4-fluorophenoxy)cyclobutyl)methanol]	0	> 25	107	4.05	0	> 25
CC1(C)C[C@@H](Oc2ccc(F)cc2C2CCN([C@@H]3COC4(C3)CN(c3nnco3)C4)CC2)CO1 (single isomer, unassigned) [Example 2N, (S)-7-(4-(2-(((R)-5,5-dimethyltetrahydrofuran-3-yl)oxy)-5-fluorophenyl)piperidin-1-yl)-2-(1,3,4-oxadiazol-2-yl)-5-oxa-2-azaspiro[3.4]octane or (S)-7-(4-(2-(((S)-5,5-dimethyltetrahydrofuran-3-yl)oxy)-5-fluorophenyl)piperidin-1-yl)-2-(1,3,4-oxadiazol-2-yl)-5-oxa-2-azaspiro[3.4]octane]	0	> 25	71	5.09	0	> 25
